The source of these data is patent publication US6080761A, “Inhibition of smooth muscle cell migration by (R)-amlodipine” (Pfizer Inc., priority 1993, dated 2000).

In this test the test system is rabbit aortic smooth muscle cells. Kind of test: aortic explant assay of smooth muscle cell migration induced by platelet-derived growth factor. It counts as cell-based. Particulars: Oryctolagus cuniculus, read-out: % inhibition of SMC migration from explants. Here is the method:
In this method uniform pieces of intimal/medial tissue from rabbit aorta were cultured in individual wells of a well plate. Migration was induced by addition of platelet-derived growth factor to the culture. Following a lag phase of several days the smooth muscle cells migrated from the explanted tissue and proliferated.
The distance covered by the outgrowing smooth muscle cells was measured.
This assay was carried out with varying concentrations of test compound added to the culture. The compounds thus tested were the maleate salts of the racemic mixture of R(+) and S(-) amlodipine, the maleate salts of R(+) and S(-) amlodipine separately and the known calcium channel-blocking agents nitrendipine and verapamil.
The results obtained are shown in Table 1, in which the percentage inhibition of smooth muscle cell migration for concentrations of test compound of 1 nanomole and 0.1 nanomole are recorded.

The mark [1] stands for this setting: 0.1 nM test compound, rabbit aortic explants, PDGF-induced migration.
Where [2] appears, read: 1 nM test compound, rabbit aortic explants, PDGF-induced migration.

Each structure is given as a SMILES string. Where two headings read alike, the source gives them in different places.

Turning to `CCOC(=O)C1=C(COCCN)NC(C)=C(C(=O)OC)C1c1ccccc1Cl` (racemic) [Amlodipine (racemate), 3-ethyl-5-methyl-2-(2-aminoethoxy-methyl)-4-(2-chlorophenyl)-1,4-dihydro-6-methylpyridine-3,5-dicarboxylate], the inhibition at 0.0001 µM under setting [1] came out at 39%. Further, the inhibition at 0.001 µM under setting [2] was 33%.

As to `CCOC(=O)C1=C(COCCN)NC(C)=C(C(=O)OC)[C@H]1c1ccccc1Cl` [Amlodipine R (+), R(+) isomer of 3-ethyl-5-methyl-2-(2-aminoethoxy-methyl)-4-(2-chlorophenyl)-1,4-dihydro-6-methylpyridine-3,5-dicarboxylate], under setting [1], the inhibition at 0.0001 µM came to 36%. The inhibition at 0.001 µM under setting [2] was 39%.

`CCOC(=O)C1=C(COCCN)NC(C)=C(C(=O)OC)[C@@H]1c1ccccc1Cl` [Amlodipine S (-)]: under setting [1], the inhibition at 0.0001 µM turned out to be 21%. Also, the inhibition at 0.001 µM under setting [2] stood at 30%.

With `CCOC(=O)C1=C(C)NC(C)=C(C(=O)OC)C1c1cccc([N+](=O)[O-])c1` (stereo not shown) [Nitrendipine, nitrendipine], the inhibition at 0.0001 µM under setting [1] was 14%. The inhibition at 0.001 µM under setting [2] is 28%.

On to `COc1ccc(CCN(C)CCCC(C#N)(c2ccc(OC)c(OC)c2)C(C)C)cc1OC` (stereo not shown) [Verapamil, verapamil], for which the inhibition at 0.0001 µM came out at 13% and the inhibition at 0.001 µM stood at 22%.
